How the values were obtained:
[1] = Interference with l-lactate measurement in saline (L-Lactate Accuvin test strips); details: d-lactic acid (0.05 mg) + l-lactic acid (0.06 mg)
Protocol: Forty mg of d-lactic acid (Sigma-Aldrich, St. Louis, Mo.; catalog no. L0625) was polymerized in a microwave oven according to the method of Pandey and Aswath (J Biomater Sci Polym Ed. 2009; 20(1):33-48). Briefly, d-lactic acid was transferred to 2 ml Reacti-Vials (Pierce Chemical Co., Rockford, Ill.) and the polymerization was carried out vented in a GE Spacemaker Model JVM 1650WH05 (Serial #900524B; manufactured April 2006) with an RF output frequency of 2450 MHz in the absence of any added solvent or catalyst. Polymerization was carried out starting at Power 1 setting on the microwave and weighing at 30 second intervals. […] Weight loss was from water during polymer esterification and dehydration. During the course of the microwave process, d-lactic acid crystals undergo a state change from a solid to a liquid and then to a gel at the end of the process. Similar procedure was used to produce PLLA with l-lactic acid.
[…] Measurement of l-lactate with L-Lactate Accuvin Test strips (Accuvin LLC, Napa, Ca), using stereospecific lactate dehydrogenase and a tetrazolium color indicator, measured less l-lactate (interference) in the experimental sample as evidenced by colorimetric determination. Experimental sample vs, control measured 10 mg/L vs, 50 mg/L of l-lactate. Other relevant tests using similar methodology and D-Lactate Accuvin Test strips are as follows:

[2] = Interference with d-lactate measurement in saline (D-Lactate Accuvin test strips); details: similar methodology

Structure (SMILES) | l-lactate test strip [1] [mg/L] | Interference with lactate measurement (in words) [2]
C[C@@H](O)C(=O)O [d-lactic acid] | 50 | –
C[C@H](O)C(=O)O [l-lactic acid] | – | No interference

Reference: US8920789B2, “Use of polymer D-lactic acid (PDLA) or equivalents thereof to inhibit growth of cancer cells and diagnose cancers” (The United States of America as represented by the …, priority 2011, dated 2014)
